Measured values taken from US9168259B2 (GRÜNENTHAL GMBH, priority 2010, dated 2015).

Target: T1, KCNQ2/3 channels (Homo sapiens, UniProt O43525+O43526)
T1 construct: expressed in transfected cells
Experiment: Fluorescence assay using a voltage sensitive dye (fluorimetry)
Type: cell-based
Conditions: CHO-K1 cells expressing KCNQ2/3; for Emax: CHO-K1, plateau effect relative to saturated retigabine (50 μM) = 100%, negative values = antagonistic, read-out: Fluorimetry % efficacy (retigabine = 100%); for EC50: IC50 where % efficacy is negative, read-out: Fluorimetry EC50/IC50

T1 sequence (O43526 whole entry): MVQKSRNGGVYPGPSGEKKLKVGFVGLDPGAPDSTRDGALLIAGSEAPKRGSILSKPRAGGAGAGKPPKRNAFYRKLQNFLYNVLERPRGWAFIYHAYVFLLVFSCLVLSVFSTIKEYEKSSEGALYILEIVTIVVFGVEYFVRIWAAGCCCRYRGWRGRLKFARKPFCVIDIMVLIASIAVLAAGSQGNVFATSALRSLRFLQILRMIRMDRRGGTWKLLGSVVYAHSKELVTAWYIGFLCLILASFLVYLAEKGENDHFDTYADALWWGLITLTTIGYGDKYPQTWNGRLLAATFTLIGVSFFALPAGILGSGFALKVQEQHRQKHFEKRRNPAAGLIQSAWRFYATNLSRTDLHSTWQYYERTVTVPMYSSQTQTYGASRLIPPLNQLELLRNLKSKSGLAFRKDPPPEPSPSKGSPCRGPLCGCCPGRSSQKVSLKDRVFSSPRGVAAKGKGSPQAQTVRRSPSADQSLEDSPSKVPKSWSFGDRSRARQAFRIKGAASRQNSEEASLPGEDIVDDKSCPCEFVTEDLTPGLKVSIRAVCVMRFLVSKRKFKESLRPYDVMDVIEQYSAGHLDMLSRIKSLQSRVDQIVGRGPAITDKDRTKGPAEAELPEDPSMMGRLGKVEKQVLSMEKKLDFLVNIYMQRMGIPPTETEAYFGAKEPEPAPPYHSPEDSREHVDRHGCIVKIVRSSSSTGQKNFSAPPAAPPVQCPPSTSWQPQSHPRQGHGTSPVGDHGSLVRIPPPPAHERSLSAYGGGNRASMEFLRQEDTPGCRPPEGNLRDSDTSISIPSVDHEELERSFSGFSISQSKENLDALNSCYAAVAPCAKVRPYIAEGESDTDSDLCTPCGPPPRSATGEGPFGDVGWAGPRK
T1 sequence (O43525 whole entry): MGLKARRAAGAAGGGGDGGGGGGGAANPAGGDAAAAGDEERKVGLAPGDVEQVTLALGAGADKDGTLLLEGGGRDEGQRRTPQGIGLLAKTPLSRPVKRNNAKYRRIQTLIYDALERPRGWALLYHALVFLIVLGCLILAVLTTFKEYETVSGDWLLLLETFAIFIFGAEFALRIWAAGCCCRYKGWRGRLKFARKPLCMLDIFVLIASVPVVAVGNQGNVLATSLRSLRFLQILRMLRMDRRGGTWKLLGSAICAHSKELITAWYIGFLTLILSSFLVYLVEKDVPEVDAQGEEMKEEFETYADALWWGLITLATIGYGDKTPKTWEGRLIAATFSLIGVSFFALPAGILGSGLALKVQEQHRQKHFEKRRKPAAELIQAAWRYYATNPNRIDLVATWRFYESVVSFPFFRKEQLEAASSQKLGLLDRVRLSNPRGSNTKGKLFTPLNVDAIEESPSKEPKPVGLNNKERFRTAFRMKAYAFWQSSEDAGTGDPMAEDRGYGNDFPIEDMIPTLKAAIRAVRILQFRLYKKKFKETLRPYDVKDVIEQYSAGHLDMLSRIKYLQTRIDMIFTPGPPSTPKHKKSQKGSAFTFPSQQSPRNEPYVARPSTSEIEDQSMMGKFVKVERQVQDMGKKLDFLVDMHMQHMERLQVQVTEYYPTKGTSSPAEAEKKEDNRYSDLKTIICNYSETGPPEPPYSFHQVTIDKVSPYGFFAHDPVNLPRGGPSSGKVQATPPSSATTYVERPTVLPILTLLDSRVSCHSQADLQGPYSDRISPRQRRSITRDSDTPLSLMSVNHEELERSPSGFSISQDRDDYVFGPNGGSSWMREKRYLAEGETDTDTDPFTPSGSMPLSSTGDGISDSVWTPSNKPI

| SMILES | Emax [%] | EC50 [nM] |
| --- | --- | --- |
| Cc1cc(N2CCOCC2)nc(N(C)C)c1C(=O)NCc1ccc(F)cc1 [Example 205, 2-Dimethylamino-N-[(4-fluorophenyl)-methyl]-4-methyl-6-morpholin-4-yl-pyridine-3-carboxylic acid amide] | 205 | 898 |
| CCN(C)c1nc(N2CCOCC2)cc(C)c1C(=O)NCc1cc(F)cc(F)c1 [Example 204, N-[(3,5-Difluoro-phenyl)-methyl]-2-(ethyl-methyl-amino)-4-methyl-6-morpholin-4-yl-pyridine-3-carboxylic acid amide] | 239 | 141 |
| CCSc1nc(N2CCN(C3CC3)CC2)cc(C)c1C(=O)NCc1cccc(F)c1 [Example 73, 6-(4-Cyclopropyl-piperazin-1-yl)-2-ethylsulfanyl-N-[(3-fluorophenyl)-methyl]-4-methyl-pyridine-3-carboxylic acid amide] | 67 | 3010 |
| CCSc1nc(N2CCOCC2)cc(C)c1C(=O)NCc1ccc(C(F)(F)F)cc1F [Example 135, 2-Ethylsulfanyl-N-[[2-fluoro-4-(trifluoromethyl)-phenyl]-methyl]-4-methyl-6-morpholin-4-yl-pyridine-3-carboxylic acid amide] | 43 | 54 |
| COCc1nc(N2CCOCC2)cc(C)c1C(=O)NCc1cccc(F)c1 [Example 356, N-[(3-Fluorophenyl)-methyl]-2-(methoxymethyl)-4-methyl-6-morpholin-4-yl-pyridine-3-carboxylic acid amide] | 140 | 6320 |
| CCSc1nc(N2CCOCC2)cc(C)c1C(=O)NCc1cccc(C(F)(F)F)c1F [Example 94, 2-Ethylsulfanyl-N-[[2-fluoro-3-(trifluoromethyl)-phenyl]-methyl]-4-methyl-6-morpholin-4-yl-pyridine-3-carboxylic acid amide] | 111 | 39 |
| CCSc1nc(N2CC3(COC3)C2)cc(C)c1C(=O)NCc1cccc(F)c1 [Example 151, 2-Ethylsulfanyl-N-[(3-fluorophenyl)-methyl]-4-methyl-6-(6-oxa-2-azaspiro[3.3]heptan-2-yl)-pyridine-3-carboxylic acid amide] | 92 | 12100 |
| CCSc1nc(N2CCCc3ccccc32)cc(C)c1C(=O)NCc1cccc(F)c1 [Example 304, 2-Ethylsulfanyl-N-[(3-fluorophenyl)-methyl]-4-methyl-6-(1,2,3,4-tetrahydro-quinolin-1-yl)-pyridine-3-carboxylic acid amide] | 81 | 348 |
| CCSc1nc(N(C)C2CCCOC2)cc(C)c1C(=O)NCCCC(C)(C)C (centres unmarked) [Example 280, N-(4,4-Dimethyl-pentyl)-2-ethylsulfanyl-4-methyl-6-(methyl-tetrahydro-pyran-3-yl-amino)-pyridine-3-carboxylic acid amide] | 165 | 302 |
| CCSc1nc(N2CCCCCC2)cc(C)c1C(=O)NCc1cccc(F)c1 [Example 136, 6-(Azepan-1-yl)-2-ethylsulfanyl-N-[(3-fluorophenyl)-methyl]-4-methyl-pyridine-3-carboxylic acid amide] | 171 | 108 |
| CCCc1nc(N2CCOCC2)cc(C)c1C(=O)NCc1cc(F)cc(F)c1 [Example 322, N-[(3,5-Difluoro-phenyl)-methyl]-4-methyl-6-morpholin-4-yl-2-propyl-pyridine-3-carboxylic acid amide] | 193 | 80 |
| Cc1cc(N2CCOCC2)nc(C2CC2)c1C(=O)NCc1ccc(F)cc1 [Example 331, 2-Cyclopropyl-N-[(4-fluorophenyl)-methyl]-4-methyl-6-morpholin-4-yl-pyridine-3-carboxylic acid amide] | 144 | 148 |
| CCSc1nc(N2CCNC(=O)C2)cc(C)c1C(=O)NCc1cccc(F)c1 [Example 143, 2-Ethylsulfanyl-N-[(3-fluorophenyl)-methyl]-4-methyl-6-(3-oxo-piperazin-1-yl)-pyridine-3-carboxylic acid amide] | 28 |  |
| CCCCNC(=O)c1c(C)cc(N2CCOCC2)nc1SCC [Example 80, N-Butyl-2-ethylsulfanyl-4-methyl-6-morpholin-4-yl-pyridine-3-carboxylic acid amide] | 147 | 2170 |
| CCSc1nc(N2CCOC[C@H]2CO)cc(C)c1C(=O)NCc1cccc(F)c1 [Example 264, 2-Ethylsulfanyl-N-[(3-fluorophenyl)-methyl]-6-[(3R)-3-(hydroxymethyl)-morpholin-4-yl]-4-methyl-pyridine-3-carboxylic acid amide] | 184 | 1560 |
| COCCSc1nc(N2CCOCC2)cc(C)c1C(=O)NCCCC(C)(C)C [Example 337, N-(4,4-Dimethyl-pentyl)-2-(2-methoxy-ethylsulfanyl)-4-methyl-6-morpholin-4-yl-pyridine-3-carboxylic acid amide] | 237 | 117 |
| CCSc1nc(N2CCOCC2)cc(C)c1C(=O)NCc1ccc(OC)c(F)c1 [Example 287, 2-Ethylsulfanyl-N-[(3-fluoro-4-methoxy-phenyl)-methyl]-4-methyl-6-morpholin-4-yl-pyridine-3-carboxylic acid amide] | 153 | 971 |
| Cc1cc(N2CCOC[C@H]2C)nc(C(C)C)c1C(=O)NCCCC(C)(C)C [Example 185, N-(4,4-Dimethyl-pentyl)-2-isopropyl-4-methyl-6-[(3R)-3-methyl-morpholin-4-yl]-pyridine-3-carboxylic acid amide] | 238 | 15 |
| CCOc1nc(N2CCOCC2)cc(C)c1C(=O)NCCCC(F)(F)F [Example 133, 2-Ethoxy-4-methyl-6-morpholin-4-yl-N-(4,4,4-trifluoro-butyl)-pyridine-3-carboxylic acid amide] | 235 | 392 |
| CSc1nc(N2CCOCC2)cc(C)c1C(=O)NCc1cc(F)cc(F)c1 [Example 156, N-[(3,5-Difluoro-phenyl)-methyl]-4-methyl-2-methylsulfanyl-6-morpholin-4-yl-pyridine-3-carboxylic acid amide] | 167 | 157 |
| COc1nc(N2CCCOCC2)cc(C)c1C(=O)NCc1cccc(F)c1 [Example 98, N-[(3-Fluorophenyl)-methyl]-2-methoxy-4-methyl-6-([1,4]oxazepan-4-yl)-pyridine-3-carboxylic acid amide] | 146 | 2310 |
| Cc1cc(N2CCOCC2)nc(C(C)C)c1C(=O)NCc1ccc(F)cc1 [Example 309, N-[(4-Fluorophenyl)-methyl]-2-isopropyl-4-methyl-6-morpholin-4-yl-pyridine-3-carboxylic acid amide] | 168 | 71 |
| CCSc1nc(N2CCOCC2)cc(C)c1C(=O)NCc1ccc(C#N)c(F)c1 [Example 268, N-[(4-Cyano-3-fluoro-phenyl)-methyl]-2-ethylsulfanyl-4-methyl-6-morpholin-4-yl-pyridine-3-carboxylic acid amide] | 142 | 286 |
| CCSc1nc(N2CCO[C@@H](COC)C2)cc(C)c1C(=O)NCc1cccc(F)c1 [Example 223, 2-Ethylsulfanyl-N-[(3-fluorophenyl)-methyl]-6-[(2R)-2-(methoxymethyl)-morpholin-4-yl]-4-methyl-pyridine-3-carboxylic acid amide] | 137 | 3660 |
